Measured values from patent US7795379B2, “Isolated nucleic acid molecules encoding cancer associated antigens, the antigens per se, and uses thereof” (Ludwig Institute for Cancer Research, priority 1999, dated 2010).

Assays:
CD4^+ T cells = test: IFN-gamma ELISPOT with overlapping NY-BR-1 18-mers, CD4+ T cells of NY-BR-1 positive patients; type: cell-based, human; details: IFN-gamma ELISPOT after presensitization with 18-mer, numbering by SEQ ID NO: 32
Procedure: (§1) CD4^+ and CD8^+ T lymphocytes were separated from PBMC of NY-BR-1 positive patients by magnetic beads (MiniMACS) and seeded into 48-well plates at a concentration of 2.5-5×10^5 cells per well in RPMI medium 1640 supplemented with 10% human serum, L-asparagine (50 mg/l), L-arginine (242 mg/l), and L-glutamine (300 mg/l). PBMC depleted of T cells were used as antigen presenting cells. After irradiation, these cells were incubated with 39 single peptides (10 μg/ml) spanning amino acids 1004-1397 of NY-BR-1(SEQ ID NO: 32) each of 18 amino acids in length and overlapping in 8 positions on each terminus, for 1 hour at room temperature and added to plates at a concentration of 1×10^6 cells per well. IL-2 and IL-4 (2.5 ng/ml and 50 U/ml, respectively) were added to CD4^+ T cell cultures, and IL-2 and IL-7 (2.5 ng/ml and 10 ng/ml, respectively) to CD8^+ T cells. Peptide specific T cell responses against the stimulating epitope were determined by IFN-gamma ELISPOT assays 6 to 12 days after presensitization.
(§2) Flat-bottomed, 96 well nitrocellulose plates were coated with IFN-γ mAb and incubated overnight at 4° C. After washing with PBS, the plates were blocked with 10% human AB serum for 1 hour at 37° C. Presensitized CD4^+ or CD8^+ T cells from (1×10^3 to 5×10^4) and 5×10^4 peptide-pulsed APC (autologous Dendritic Cells or Epstein Barr Virus transfected B cells) were added to each well and incubated for 20 hours in RPMI medium 1640 lacking both IL-2 and human serum. Plates were then washed thoroughly with PBS to remove cells, and biotinylated IFN-γ mAbs were added to each well. After incubation for 2 hours at 37° C., the plates were washed and developed with streptavidin-alkaline phosphase for 1 hour at room temperature. After washing, substrate (5-bromo-4-chloro-3-indolyl phosphate/nitroblue tetrazolium) was added and incubated for 5 minutes.
(§3) Both CD4^+ and CD8^+ T cells were collected from twenty patients, who had been diagnosed with cancer and expressed NY-BR-1, as determined via the methods set forth supra. These CD4^+ and CD8^+ T cells were then analyzed for spontaneous NY-BR-1 specific, CD4^+ and CD8^+ responses.
(§4) Lymphocytes, which had been purified in accordance with the standard methods set forth supra, were presensitized with synthetic 18 mers which overlapped each other, and spanned amino acids […] of SEQ ID NO: 32.
(§5) Following the presensitization, effector cell populations were tested for recognition of ELISPOT assays, with autologous, EBV transfected B cells, and T2 cell lines being used as the antigen presenting cells in the ELISPOT assays. ELISPOT assays were carried out as described supra.

CD8^+ T cells = test: IFN-gamma ELISPOT with overlapping NY-BR-1 18-mers, CD8+ T cells of NY-BR-1 positive patients; type: cell-based, human; details: for recognized by CD8+ cells: IFN-gamma ELISPOT after presensitization with 18-mer, numbering by SEQ ID NO: 32
Procedure: as §1, §2, §3, §4, §5

CD8^+ cells = test: ELISPOT assay (interferon gamma) of CTL stimulation by NY-BR-1 peptides pulsed onto T2 cells; type: cell-based, human; details: peptides pulsed onto irradiated T2 cells at 10 ug/ml; CD8+ effector cells presensitized with peptide; HLA-A2
Procedure: A series of peptides were synthesized, based upon the amino acid sequence of NY-BR-1, as set forth in SEQ ID NO: 23 and the concatenation of SEQ ID NOS: 30 & 23, as described supra and set forth at SEQ ID NO: 32. These were then tested for their ability to bind to HLA-A2 molecules and to stimulate CTL proliferation, using an ELISPOT assay. This assay involved coating 96-well, flat bottom nitrocellulose plates with 5 ug/ml of anti-interferon gamma antibodies in 100 ul of PBS per well, followed by overnight incubation. Purified CD8^+ cells, which had been separated from PBL samples via magnetic beads coated with anti-CD8 antibodies were then added, at 1×10^5 cells/well, in RPMI 1640 medium, that had been supplemented with 10% human serum, L-asparagine (50 mg/l), L-arginine (242 mg/l), L-glutamine (300 mg/l), together with IL-2 (2.5 ng/ml), in a final volume of 100 ul. CD8^+ effector cells were prepared by presensitizing with peptide, and were then added at from 5×103 to 2×10^4 cells/well. Peptides were pulsed onto irradiated T2 cells at a concentration of 10 ug/ml for 1 hour, washed and added to effector cells, at 5×10^4 cells/well. The plates were incubated for 16 hours at 37° C., washed six times with 0.05% Tween 20/PBS, and were then supplemented with biotinylated, anti-interferon gamma specific antibody at 0.5 ug/ml. After incubation for 2 hours at 37° C., plates were washed, and developed with commercially available reagents, for 1 hour, followed by 10 minutes of incubation with dye substrate. Plates were then prepped for counting, positives being indicated by blue spots. The number of blue spots/well was determined as the frequency of […] specific CTLs/well.
Experiments were run, in triplicate, and total number of CTLs was calculated. As controls, one of reagents alone, effector cells alone, or antigen presenting cells alone were used. The difference between the number of positives in stimulated versus non-stimulated cells, was calculated as the effective number of peptide specific CTLs above background.

CD8^+ T cell clones = test: T cell stimulation assay: TNF-α production by peptide/HLA-A2 specific CTL clones with COS-7 transfectants (NY-BR-1 + HLA-A2); type: cell-based, human; details: COS-7 cells transfected with NY-BR-1 and HLA-A2; CD8+ T cell clones of breast cancer patient NW-1100
Procedure: Sequences encoding NY-BR-1 were excised from plasmid pQE9, via standard restriction enzyme digestion, and were cloned into BamHI-Hind III sites of commercially available plasmid pcDNA31 (−).
The resulting vectors were then transfected into COS-7 cells. To accomplish this, 2×10^4COS-7 cells were admixed with 150 ng of the construct described supra, and 150 ng of plasmid pcDNA-AmpI, which contained cDNA encoding HLA-A2. The standard DE AE-dextran chloroquine method was used. Transfectants were then incubated at 37° C. for 48 hours, and then tested in a T cell stimulation assay, after 24 hours, as described infra.
The transfectants were tested to determine if they could stimulate production of TNF-α by CTLs specific for complexes of HLA-A2 molecules and one of the peptides described supra. The CTLs used were CD8^+ T cell clones. […]
To test if the transfectants stimulated the CD8^+ cells, 5000 of these CD8^+ cells, in 100 μl RPMI supplemented with 10% human serum, and 25 U/ml of recombinant human IL-2 were added to micowells containing the transfectants. After 24 hours, 50 μl samples of supernatant were collected, and TNFα content was determined by testing cytotoxicity against WEHI 164 clone 13 cells, in an MTT colorimetric assay, which is a standard method for showing TNFα production.

[1] = target: T1, serum samples from breast cancer patients and normal serum samples (Homo sapiens, UniProt Q9BXX3); test: Western blotting of serum samples against recombinant NY-BR-1 protein fragments; type: binding
T1 construct: made in house
T1 sequence (Q9BXX3 1049-1244): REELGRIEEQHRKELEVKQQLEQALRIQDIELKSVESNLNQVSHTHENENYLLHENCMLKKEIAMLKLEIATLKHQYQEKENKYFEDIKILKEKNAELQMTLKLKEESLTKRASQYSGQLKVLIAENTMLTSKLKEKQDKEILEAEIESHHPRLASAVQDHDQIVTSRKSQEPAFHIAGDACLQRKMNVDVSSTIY
Procedure: The frequency of antibody response against NY-BR-1 in breast cancer patients was tested. To do this, a recombinant protein consisting of amino acids 993-1188 of SEQ ID NO: 23 was prepared. (This is the protein encoded by clone BR 17-128, referred to supra). A total of 140 serum samples were taken from breast cancer patients, as were 60 normal serum samples. These were analyzed via Western blotting, using standard methods.
An additional set of experiments was then carried out to determine if sera recognized the portion of NY-BR-1 protein with repetitive elements. To do this, a different recombinant protein, consisting of amino acids 405-1000 was made, and tested in Western blot assays.

## EDIKILKEKNAELQMTLK [p1134-1151]
CD4^+ T cells
  CD4+ cells reacted / recognized by CD4+ T cells: reacted

## ENQKVKWEQELCSVRLTL [p1014-1031]
CD4^+ T cells; listed as 1011-1021
  CD4+ cells reacted / recognized by CD4+ T cells: reacted

## FNYNNHLKNRIYQYEKEK [p1374-1391]
CD4^+ T cells
  CD4+ cells reacted / recognized by CD4+ T cells: reacted

## HENENYLLHENCMLKKEI [p1094-1111]
CD4^+ T cells
  CD4+ cells reacted / recognized by CD4+ T cells: reacted

## HIAGDACLQRKMNVDVSS [p1224-1241]
CD8^+ T cells
  recognized by CD8+ cells: recognized

## HLLKEKNEEIFNYNNHLK [p1364-1381]
CD4^+ T cells
  CD4+ cells reacted / recognized by CD4+ T cells: reacted

## KINLNYAGDALRENTLVS [p1264-1281]
CD8^+ T cells
  recognized by CD8+ cells: recognized
CD4^+ T cells
  CD4+ cells reacted / recognized by CD4+ T cells: reacted

## LLSHGAVIEV [NY-BR-1 derived peptide, HLA-A2]
CD8^+ cells
  reactive in ELISPOT (peptide specific CTLs above background): reactive
CD8^+ T cell clones
  peptide/HLA-A2 complexes recognized by CD8+ T cells (TNFα production); naturally processed epitope: natural epitopes

## LRENTLVSEHAQRDQRET [p1274-1291]
CD8^+ T cells
  recognized by CD8+ cells: recognized

## QQQLVHAHKKADNKSKIT [p1334-1351]
CD8^+ T cells
  recognized by CD8+ cells: recognized

## QYQEKENKYFEDIKILKE [p1124-1141]
CD4^+ T cells
  CD4+ cells reacted / recognized by CD4+ T cells: reacted

## SLDQKLFQL [NY-BR-1 derived peptide, HLA-A2]
CD8^+ cells
  reactive in ELISPOT (peptide specific CTLs above background): reactive

## SLSKILDTV [NY-BR-1 derived peptide, HLA-A2]
CD8^+ cells
  reactive in ELISPOT (peptide specific CTLs above background): reactive
CD8^+ T cell clones
  peptide/HLA-A2 complexes recognized by CD8+ T cells (TNFα production); naturally processed epitope: natural epitopes

## TSRKSQEPAFHIAGDACL [p1214-1231]
CD8^+ T cells
  recognized by CD8+ cells: recognized
CD8^+ T cells; recognized when pulsed onto T2 cells, patient 1
  HLA restriction: restricted to HLA-A2

## YSGQLKVLIAENTMLTSK [p1164-1181]
CD4^+ T cells
  CD4+ cells reacted / recognized by CD4+ T cells: reacted

B1: amino acids 405-1000: recombinant protein consisting of amino acids 405-1000 of NY-BR-1, the portion with repetitive elements (protein, UniProt Q9BXX3 405-1000, looked up, fragment)
chain: KFTWAAKGRPRKIAWEKKETPVKTGCVARVTSNKTKVLEKGRSKMIACPTKESSTKASANDQRFPSESKQEEDEEYSCDSRSLFESSAKIQVCIPESIYQKVMEINREVEEPPKKPSAFKPAIEMQNSVPNKAFELKNEQTLRADPMFPPESKQKDYEENSWDSESLCETVSQKDVCLPKATHQKEIDKINGKLEESPNKDGLLKATCGMKVSIPTKALELKDMQTFKAEPPGKPSAFEPATEMQKSVPNKALELKNEQTLRADEILPSESKQKDYEENSWDTESLCETVSQKDVCLPKAAHQKEIDKINGKLEGSPVKDGLLKANCGMKVSIPTKALELMDMQTFKAEPPEKPSAFEPAIEMQKSVPNKALELKNEQTLRADEILPSESKQKDYEESSWDSESLCETVSQKDVCLPKATHQKEIDKINGKLEESPDNDGFLKAPCRMKVSIPTKALELMDMQTFKAEPPEKPSAFEPAIEMQKSVPNKALELKNEQTLRADQMFPSESKQKKVEENSWDSESLRETVSQKDVCVPKATHQKEMDKISGKLEDSTSLSKILDTVHSCERARELQKDHCEQRTGKMEQMKKKFCVLK
[1]; the four cancer sera positive for amino acids 993-1188
  reactivity of the four antibody positive sera in Western blot: None of the four antibody positive sera reacted

B2: amino acids 993-1188: recombinant protein consisting of amino acids 993-1188 of SEQ ID NO: 23 (NY-BR-1) (protein)
chain: T1 sequence (Q9BXX3 1049-1244)
[1]; 60 normal serum samples
  reactivity of normal sera in Western blot: negative
[1]; 140 serum samples from breast cancer patients
  cancer sera samples positive in Western blot: Four
